Measurements: ChEMBL document CHEMBL1145623, “Structure-activity relationships of anthranilamide-based factor Xa inhibitors containing piperidinone and pyridinone P4 moieties” (Bioorg Med Chem Lett, 2008)
In brackets after ≈: the same amount, converted by molar mass.

Key:
Canis familiaris [1] = assay: Clearance in dog at 0.02 to 0.5 mg/kg, iv and po; assay type: ADME, organism-based, Canis lupus familiaris; parameters: dose 0.02-0.5 mg/kg, route oral; conditions: in vivo
[2] = Half life in dog at 0.02 to 0.5 mg/kg, po; assay type: ADME, organism-based, Canis lupus familiaris; parameters: dose 0.02-0.5 mg/kg, route oral; conditions: in vivo
Canis familiaris [3] = assay: Volume of distribution at steady state in dog at 0.02 to 0.5 mg/kg, iv and po; assay type: ADME, organism-based, Canis lupus familiaris; parameters: dose 0.02-0.5 mg/kg, route oral; conditions: in vivo
[4] = Bioavailability in dog at 0.02 to 0.5 mg/kg, po; assay type: ADME, organism-based, Canis lupus familiaris; conditions: in vivo
[5] = Solubility in potassium phosphate buffer at pH 6.5 by thermodynamic equilibrium aqueous solubility assay; assay type: physicochemical

Row | Structure (SMILES) | CL (Canis familiaris [1]) | half-life [2] | Vdss (Canis familiaris [3]) | bioavailability [4] | solubility thermodynamic [5]
1 | COc1cc(Cl)cc(C(=O)Nc2ccc(Cl)cn2)c1NC(=O)c1ccc(-n2ccccc2=O)cc1F | 13 mL/min/kg | 0.7 h | 2.6 L/kg | 18% | –
2 | COc1cc(Cl)cc(C(=O)Nc2ccc(Cl)cn2)c1NC(=O)c1ccc(N2CCCCC2=O)cc1 | 12 mL/min/kg | 1.5 h | 1.3 L/kg | 44% | 19 µg/mL (≈ 37 µM)
3 | CN(C)CCOc1cc(Cl)cc(C(=O)Nc2ccc(Cl)cn2)c1NC(=O)c1ccc(N2CCCCC2=O)cc1 | – | – | – | – | 912 µg/mL (≈ 1600 µM)
4 | COc1cc(Cl)cc(C(=O)Nc2ccc(Cl)cn2)c1NC(=O)c1ccc(-n2ccccc2=O)nc1 | 5 mL/min/kg | 1.6 h | 0.81 L/kg | 74% | –
5 | COc1ccc(-n2nc(C(N)=O)c3c2C(=O)N(c2ccc(N4CCCCC4=O)cc2)CC3)cc1 [APIXABAN] | 0.33 mL/min/kg | 5.8 h | 0.2 L/kg | – | –
6 | COc1cc(Cl)cc(C(=O)Nc2ccc(Cl)cn2)c1NC(=O)c1ccc(-n2ccccc2=O)cc1 | 11.2 mL/min/kg | 0.7 h | 0.62 L/kg | 99% | –
